Laboratory results published in ChEMBL document CHEMBL1157539, “Thousands of chemical starting points for antimalarial lead identification” (Nature, 2010).

Test system: Plasmodium falciparum
Test: GSK_TCMDC: Inhibition of Plasmodium falciparum 3D7 in whole erythrocytes, using parasite LDH activity as an index of growth.
Format: functional, organism-based
Settings: Plasmodium falciparum, 3D7

**Q.** `CCc1cc2c(cc1OCCN(C)C)N(C(=O)Nc1ccc(-c3ccncc3)c(Cl)c1)CC2` was tested. Which XC50 did it give?
**A.** 840 nM

**Q.** Which XC50 does the source give for `COc1ccccc1N1CCN(Cc2c(NC(C)=O)sc(C)c2C)CC1` here?
**A.** 425 nM

**Q.** For `O=C(Cc1ccccc1)NC(CCN1CCC(N(C2CC2)S(=O)(=O)c2cccc(C(F)(F)F)c2)CC1)c1ccc(Cl)c(Cl)c1` (centres undefined), which XC50 is on record?
**A.** 1270 nM

**Q.** `Cc1cc2nc(-c3ccc(/C=C/C(=O)NC4CCN(Cc5ccccc5)CC4)cc3)[nH]c2cc1C` was tested. Which XC50 did it give?
**A.** 588 nM

**Q.** For `COc1ccccc1N(C)CCNc1cc(C)nc(Nc2ccc(C)cc2)n1`, which XC50 is on record?
**A.** 1570 nM

**Q.** With `COc1ccccc1CNC(=O)c1cc(Br)cc(N2CCN(c3ccncc3)CC2)c1` as the compound, how does the XC50 read?
**A.** 946 nM

**Q.** Which XC50 does the source give for `COc1ccc(NC(=O)c2ccc(-c3ccc(-c4cccnc4)cc3)c(C)c2)cc1OCCN(C)C` here?
**A.** 201 nM

**Q.** For `CCN(CC)CCN(Cc1ccc(-c2ccc(C(F)(F)F)cc2)cc1)C(=O)c1c[nH]c2ccc(Br)cc12`, which XC50 is on record?
**A.** 953 nM

**Q.** Which XC50 does the source give for `CCCCCOc1c(CCC)cc(Cc2cnc(N)nc2N)cc1CCC` here?
**A.** 898 nM

**Q.** Which XC50 does the source give for `CC(=O)c1ccc(-c2ccccc2)s1` here?
**A.** 1080 nM

**Q.** `Fc1ccc2[nH]c(-c3cccc(-c4cccc(CNCc5cnn(-c6ccccc6)n5)c4)c3)nc2c1` was tested. Which XC50 did it give?
**A.** 971 nM

**Q.** With `COc1ccc2nc3cc(Cl)ccc3c(Nc3ccc(C(=O)O)cc3)c2c1` as the compound, how does the XC50 read?
**A.** 301 nM

**Q.** `Cc1nc(N)nc(N)c1-c1ccc(Br)c(Br)c1` was tested. Which XC50 did it give?
**A.** 53.6 nM

**Q.** How did the XC50 turn out when `C[C@@H](N)C#Cc1cc2c(Nc3ccc(OCc4cccc(F)c4)c(Cl)c3)ncnc2s1` was run?
**A.** 1060 nM

**Q.** For `Cc1[nH]c2cc(F)ccc2c1C1=CCN(CCCCC2(C)C(=O)Nc3c(F)cccc32)CC1` (centres undefined), which XC50 is on record?
**A.** 397 nM

**Q.** Which XC50 does the source give for `Clc1ccc(OCc2ccccc2)c(-c2nc(-c3nc4ncc(Br)cc4[nH]3)cs2)c1` here?
**A.** 214 nM

**Q.** Which XC50 does the source give for `Cc1nc(-c2cccc(C(F)(F)F)c2)n2nc(Nc3ccc(OCCN4CCCC4)cc3)ncc12` here?
**A.** 751 nM

**Q.** For `N#Cc1ccc2c(c1)CCN(CCC1CCC(NC(=O)Nc3ccncc3)CC1)C2` (centres undefined), which XC50 is on record?
**A.** 1130 nM

**Q.** Which XC50 does the source give for `COc1cc(CN=C(S)NN=C(C)c2ccccn2)cc(OC)c1OC` here?
**A.** 396 nM

**Q.** With `O=C(Nc1ccc(CN2CCOCC2)cc1)c1ccc(-c2cc(Cl)ccc2Cl)o1` as the compound, how does the XC50 read?
**A.** 613 nM

**Q.** Which XC50 does the source give for `NC(=O)c1cccc(C(=O)Nc2cccc(-c3ccc(-c4nc5cc(C(F)(F)F)ccc5[nH]4)cc3)c2)c1` here?
**A.** 520 nM

**Q.** Which XC50 does the source give for `O=C(/C=C/c1ccc(Cl)c(Cl)c1)NCCCCCN1CCC(C(=O)Nc2cccc(Cl)c2)CC1` here?
**A.** 681 nM

**Q.** For `COc1ccc(CCNCc2ccc3nc(N)cc(C)c3c2)cc1`, which XC50 is on record?
**A.** 214 nM

**Q.** Which XC50 does the source give for `COc1ccc(Nc2nc(NCc3ccco3)c3ccccc3n2)cc1` here?
**A.** 740 nM

**Q.** With `CCN(CC)CCN(CCN(CC)CC)c1ccc(-c2nc3cc(Cl)c(Cl)cc3[nH]2)cc1` as the compound, how does the XC50 read?
**A.** 785 nM

**Q.** Which XC50 does the source give for `O=C(Nc1cccc(-c2nc3ccccc3[nH]2)c1)c1cccc(NC(=O)c2ccco2)c1` here?
**A.** 360 nM

**Q.** For `Cc1cc(OCCCN2CCC(NS(=O)(=O)c3cccc(Br)c3)CC2)c2ccccc2n1`, which XC50 is on record?
**A.** 1110 nM

**Q.** `O=C(NCC1CCC(CNCCCc2ccccc2)CC1)Nc1ccc(Cl)c(Cl)c1` (centres undefined) was tested. Which XC50 did it give?
**A.** 767 nM

**Q.** How did the XC50 turn out when `O=C(Nc1ccnc(N2CCCN(Cc3cccc(O)c3)CC2)c1)c1ccc(F)cc1` was run?
**A.** 1480 nM

**Q.** Which XC50 does the source give for `Cc1cc(=NN=Cc2ccc(F)cc2)c2cc(C(F)(F)F)ccc2[nH]1` here?
**A.** 228 nM

**Q.** How did the XC50 turn out when `CCCC(C(=O)OCCN(CC)CC)(c1ccc(Cl)cc1)c1ccc(Cl)cc1` was run?
**A.** 880 nM

**Q.** `Cc1ccc(C)c(NC(=O)NCCNc2ccnc(Nc3ccc(F)cc3)n2)c1` was tested. Which XC50 did it give?
**A.** 817 nM

**Q.** `O=C(/C=C/c1ccc(C(F)(F)F)cc1)N1CCC(CCN2CCC(c3c[nH]c4ccccc34)CC2)CC1` was tested. Which XC50 did it give?
**A.** 716 nM

**Q.** How did the XC50 turn out when `COC(=O)c1ccc(CC(C)NCC(O)c2cccc(C(F)(F)F)c2)cc1C` (centres undefined) was run?
**A.** 974 nM

**Q.** Which XC50 does the source give for `Cc1[nH]c(C)c(-c2ccc(OCCCCSc3ccncc3)cc2)c(=O)c1Br` here?
**A.** 246 nM

**Q.** For `CSC1=NC(=Nc2c(C)cccc2C)C2(CCC(C(C)(C)C)CC2)N1c1ccc(O)cc1` (centres undefined), which XC50 is on record?
**A.** 250 nM

**Q.** With `O=C(NCc1ccccc1)NC1CCN(c2ccnc3cc(Cl)ccc23)C1` (centres undefined) as the compound, how does the XC50 read?
**A.** 158 nM

**Q.** With `Cc1cc2ncn(-c3nccc(NCc4ccc(F)cc4)n3)c2cc1C` as the compound, how does the XC50 read?
**A.** 886 nM

**Q.** How did the XC50 turn out when `CCCCCC(C)C(C)c1cc(OC(N)=O)c2c(c1)OC(C)(C)C=C2c1ccncc1` (centres undefined) was run?
**A.** 895 nM

**Q.** With `Cc1cc(-c2ccc3c(c2)CC[C@@H](N[C@@H](C)c2ccccc2)C3)cnc1N` as the compound, how does the XC50 read?
**A.** 1730 nM

**Q.** How did the XC50 turn out when `COc1ccc2[nH]cc(C3CC4CCC(C3)N4CCC3CCN(C(=O)/C=C/c4ccc(Cl)c(Cl)c4)CC3)c2c1` (centres undefined) was run?
**A.** 624 nM

**Q.** `Cc1ccc(NC(=O)Nc2ccc(I)c(OCCN(C)C)c2)cc1Cl` was tested. Which XC50 did it give?
**A.** 564 nM

**Q.** With `C=CCn1c(Cc2ccccc2)nnc1Sc1ccc(C#N)c([N+](=O)[O-])c1` as the compound, how does the XC50 read?
**A.** 1030 nM

**Q.** Which XC50 does the source give for `CC(C)(C)NCC(O)COc1ccc(Cl)cc1C1=NNC(=O)CC1` (centres undefined) here?
**A.** 150 nM

**Q.** How did the XC50 turn out when `O=c1cc(NCCCNCc2csc(Br)c2Sc2ccc(Cl)cc2)[nH]c2ccccc12` was run?
**A.** 849 nM

**Q.** Which XC50 does the source give for `O=C(Nc1cccc(-c2ccc(-c3nc4cc(F)ccc4[nH]3)cc2)c1)c1csnn1` here?
**A.** 278 nM

**Q.** For `COc1cc(Br)c(S(=O)(=O)n2cc(CN3CCC(N)CC3)c3cc(Cl)ccc32)cc1OC`, which XC50 is on record?
**A.** 985 nM

**Q.** With `O=C(c1cccc(COc2ccc3c(c2)CCN(C2CCCC2)CC3)c1)N1CCN(c2ccncc2)CC1` as the compound, how does the XC50 read?
**A.** 740 nM

**Q.** Which XC50 does the source give for `Cn1nccc1C(=O)NCCNCc1ccc(-c2cccc(-c3nc4cc(C(F)(F)F)ccc4[nH]3)c2)cc1` here?
**A.** 117 nM
